Where two headings read alike, the source gives them in different places.
Columns and labels:
[1] = system: Neuroblastoma SH-SY5Y cells (SH/APPwt) with human wild-type β-APP excessively expressed; test: Measurement of β-amyloid (Aβ) production inhibitory effect in cell; type: cell-based
Procedure: Neuroblastoma SH-SY5Y cells (SH/APPwt) with human wild-type β-APP excessively expressed therein were prepared at 8×10^5 cells/mL, and 150 μl portions thereof were inoculated into each well of a 96-well culture plate (Falcon). The cells were cultured for 2 hours at 37° C. in a 5% gaseous carbon dioxide incubator. Then, a solution which had been preliminarily prepared by adding and suspending the test compound (DMSO (dimethyl sulfoxide) solution) so as to be 2 μl/50 μl medium was added to the cell sap. Namely, the final DMSO concentration was 1%, and the amount of the cell culture was 200 μl. After the incubation was performed for 24 hours from the addition of the test compound, 100 μl of the culture supernatant was collected from each fraction. The amount of the Aβ in each fraction was measured.
The Aβ amount was measured as follows. 10 μl of a homogeneous time resolved fluorescence (HTRF) measurement reagent (Amyloid β 1-40 peptide; IBA Molecular Holding, S. A.) and 10 μl of the culture supernatant were put into a 384-well half area microplate (black microplate, Costar) and mixed with each other, and then left standing overnight at 4° C. while the light was shielded. Then, the fluorescence intensity (excitation wavelength: 337 nm, measurement wavelength: 620 nm and 665 nm) was measured with a Wallac 1420 multilabel counter (Perkin Elmer life sciences).

[2] = molecular target: T1, hERG (IKr) (Homo sapiens, UniProt Q12809); test: hERG test; type: cell-based; settings: pH 7.4, HEK293 cells expressing hERG channel, whole cell patch clamp, concentration not given, read-out: % inhibition relative to the tail peak current (IKr)
T1 construct: expressed in transfected cells; host or cells: HEK293
T1 sequence (Q12809 whole entry): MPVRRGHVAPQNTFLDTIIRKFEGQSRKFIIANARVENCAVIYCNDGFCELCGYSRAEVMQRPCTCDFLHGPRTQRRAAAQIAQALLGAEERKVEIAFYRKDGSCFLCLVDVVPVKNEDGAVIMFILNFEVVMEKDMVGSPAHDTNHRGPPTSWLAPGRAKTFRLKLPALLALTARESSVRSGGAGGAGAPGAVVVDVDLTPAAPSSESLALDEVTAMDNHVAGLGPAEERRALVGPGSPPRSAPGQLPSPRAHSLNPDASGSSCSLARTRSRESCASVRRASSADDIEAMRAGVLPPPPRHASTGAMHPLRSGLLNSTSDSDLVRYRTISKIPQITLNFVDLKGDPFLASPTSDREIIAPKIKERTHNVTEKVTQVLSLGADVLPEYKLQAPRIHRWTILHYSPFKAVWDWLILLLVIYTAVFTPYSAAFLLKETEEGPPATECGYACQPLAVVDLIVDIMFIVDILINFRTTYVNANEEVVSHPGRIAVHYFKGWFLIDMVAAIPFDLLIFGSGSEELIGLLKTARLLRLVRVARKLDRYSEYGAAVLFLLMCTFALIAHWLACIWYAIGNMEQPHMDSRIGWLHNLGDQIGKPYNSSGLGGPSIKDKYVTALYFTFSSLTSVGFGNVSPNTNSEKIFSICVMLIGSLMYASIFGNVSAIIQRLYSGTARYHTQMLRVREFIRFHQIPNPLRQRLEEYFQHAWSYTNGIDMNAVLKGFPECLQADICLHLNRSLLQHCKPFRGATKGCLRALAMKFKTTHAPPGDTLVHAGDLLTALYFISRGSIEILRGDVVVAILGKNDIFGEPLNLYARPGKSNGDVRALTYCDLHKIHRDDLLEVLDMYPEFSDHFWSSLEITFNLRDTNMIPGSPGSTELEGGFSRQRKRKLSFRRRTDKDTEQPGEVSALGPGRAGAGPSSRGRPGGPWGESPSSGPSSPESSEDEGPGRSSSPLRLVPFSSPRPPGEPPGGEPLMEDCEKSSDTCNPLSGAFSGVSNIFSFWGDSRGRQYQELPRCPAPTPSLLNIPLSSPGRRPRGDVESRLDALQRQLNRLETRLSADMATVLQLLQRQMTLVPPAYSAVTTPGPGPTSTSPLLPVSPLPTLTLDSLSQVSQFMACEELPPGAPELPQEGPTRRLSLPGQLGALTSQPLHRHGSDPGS
From the text: For the purpose of assessing risk of an electrocardiogram QT interval prolongation, effects on delayed rectifier K+ current (IKr), which plays an important role in the ventricular repolarization process, was studied using HEK293 cells expressing human ether-a-go-go related gene (hERG) channel.
After a cell was retained at a membrane potential of −80 mV by whole cell patch clamp method using an automated patch clamp system (PatchXpress 7000A, Axon Instruments Inc.), IKr induced by depolarization pulse stimulation at +40 mV for 2 seconds and, further, repolarization pulse stimulation at −50 mV for 2 seconds was recorded. […] From the recording IKr, an absolute value of the tail peak current was measured based on the current value at the resting membrane potential using an analysis software (DataXpress ver.1, Molecular Devices Corporation). Further, the % inhibition relative to the tail peak current before application of the test substance was calculated, and compared with the vehicle-applied group (0.1% dimethyl sulfoxide solution) to assess influence of the test substance on IKr.

[3] = molecular target: T2, CYP3A4 enzyme expressed in Escherichia coli (Homo sapiens, UniProt P08684); test: CYP3A4 fluorescent MBI test; type: in vitro ADME; settings: pre-reaction time 0 or 30 minutes; substrate 7-BFC
T2 construct: host or cells: Escherichia coli
T2 sequence (P08684 whole entry): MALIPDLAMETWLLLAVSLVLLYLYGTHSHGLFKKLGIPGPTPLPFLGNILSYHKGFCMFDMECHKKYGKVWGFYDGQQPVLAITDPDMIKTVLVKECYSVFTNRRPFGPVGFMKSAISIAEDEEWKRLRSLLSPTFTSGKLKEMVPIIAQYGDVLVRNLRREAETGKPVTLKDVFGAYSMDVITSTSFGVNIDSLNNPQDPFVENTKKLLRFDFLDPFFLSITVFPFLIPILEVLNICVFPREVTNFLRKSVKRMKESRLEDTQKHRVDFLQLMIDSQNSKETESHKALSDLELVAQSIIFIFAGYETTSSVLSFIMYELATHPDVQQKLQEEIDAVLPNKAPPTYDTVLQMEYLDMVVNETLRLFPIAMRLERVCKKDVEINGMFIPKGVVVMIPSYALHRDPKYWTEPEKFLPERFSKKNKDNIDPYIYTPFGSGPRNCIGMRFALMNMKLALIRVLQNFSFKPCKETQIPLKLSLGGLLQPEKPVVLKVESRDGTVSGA
Procedure: The CYP3A4 fluorescent MBI test is a test of investigating enhancement of CYP3A4 inhibition of a compound by a metabolism reaction, and the test was performed using, as CYP3A4 enzyme expressed in Escherichia coli and employing, as an index, a reaction in which 7-benzyloxytrifluoromethylchmarin (7-BFC) is debenzylated by the CYP3A4 enzyme to produce a metabolite, 7-hydroxytrifluoromethylchmarin (HFC) emitting fluorescent light.
The reaction conditions were as follows: substrate, 5.6 μmol/L 7-BFC; pre-reaction time, 0 or 30 minutes; reaction time, 15 minutes; reaction temperature, 25° C. […]
An enzyme in a K-Pi buffer (pH 7.4) and a test drug solution as a pre-reaction solution were added to a 96-well plate at the composition of the pre-reaction, a part of it was transferred to another 96-well plate so that it was 1/10 diluted by a substrate in a K-Pi buffer, NADPH as a co-factor was added to initiate a reaction as an index (without preincubation) and, after a predetermined time of a reaction, acetonitrile/0.5 mol/L Tris(trishydroxyaminomethane)=4/1 was added to stop the reaction. […] For the plate on which each index reaction had been performed, a fluorescent value of 7-HFC which is a metabolite was measured with a fluorescent plate reader. […]

[4] = Solubility test; type: physicochemical; settings: JP-I and JP-II media (2% DMSO stock added), aqueous buffer, kinetic from dmso stock, medium (JP-I, JP-II), turbidity after 4 hours
Procedure: A 2-fold dilution series (12 points) of a 10 mM solution of a test compound in DMSO was added to a medium (JP-I, JP-II) (2%), and solubility was assessed by 3 stages (High; >40 μM, Medium; 3-40 μM, Low; <3 μM) from a turbidity after 4 hours (crystallization information).

[5] = molecular target: T3, CYP2C19 (Homo sapiens, UniProt P33261); test: CYP inhibition test (CYP2C19); type: in vitro ADME; settings: pooled human hepatic microsome; mephenyloin 4′-hydroxylation
T3 construct: enzyme, pooled human hepatic microsome 0.2 mg protein/mL; from tissue; host or cells: pooled human hepatic microsomes
T3 sequence (P33261 whole entry): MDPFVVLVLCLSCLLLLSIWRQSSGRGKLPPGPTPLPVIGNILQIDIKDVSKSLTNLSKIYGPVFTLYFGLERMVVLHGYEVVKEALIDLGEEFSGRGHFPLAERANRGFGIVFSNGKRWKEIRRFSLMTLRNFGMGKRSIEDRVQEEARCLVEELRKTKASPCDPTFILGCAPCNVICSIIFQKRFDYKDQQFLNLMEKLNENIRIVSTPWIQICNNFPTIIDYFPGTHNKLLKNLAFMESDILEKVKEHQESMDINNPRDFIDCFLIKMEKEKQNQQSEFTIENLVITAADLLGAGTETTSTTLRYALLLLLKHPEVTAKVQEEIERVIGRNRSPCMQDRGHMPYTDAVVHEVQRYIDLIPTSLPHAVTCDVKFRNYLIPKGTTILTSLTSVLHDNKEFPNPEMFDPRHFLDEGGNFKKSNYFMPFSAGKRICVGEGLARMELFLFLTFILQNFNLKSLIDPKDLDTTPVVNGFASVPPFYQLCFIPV
Procedure: (§1) Using commercially available pooled human hepatic microsome, and employing, as markers, 7-ethoxyresorufin O-deethylation (CYP1A2), tolbutamide methyl-hydroxylation (CYP2C9), mephenyloin 4′-hydroxylation (CYP2C19), dextromethorphan O-demethylation (CYP2D6), and terfenedine hydroxylation (CYP3A4) as typical substrate metabolism reactions of human main five CYP enzyme forms (CYP1A2, 2C9, 2C19, 2D6, 3A4), an inhibitory degree of each metabolite production amount by a test compound was assessed. […] After the centrifugation at 3000 rpm for 15 minutes, resorufin (CYP1A2 metabolite) in the supernatant was quantified by a fluorescent multilabel counter and tolbutamide hydroxide (CYP2C9 metabolite), mephenyloin 4′ hydroxide (CYP2C19 metabolite), dextrorphan (CYP2D6 metabolite), and terfenadine alcohol (CYP3A4 metabolite) were quantified by LC/MS/MS. Addition of only DMSO being a solvent dissolving a drug to a reaction system was adopted as a control (100%), remaining activity (%) was calculated at each concentration of a test drug added as the solution and IC50 was calculated by reverse presumption by a logistic model using a concentration and an inhibition rate.

[6] = molecular target: T4, CYP2C9 (Homo sapiens, UniProt P11712); test: CYP inhibition test (CYP2C9); type: in vitro ADME; settings: pooled human hepatic microsome; tolbutamide methyl-hydroxylation
T4 construct: enzyme, pooled human hepatic microsome 0.2 mg protein/mL; from tissue; host or cells: pooled human hepatic microsomes
T4 sequence (P11712 whole entry): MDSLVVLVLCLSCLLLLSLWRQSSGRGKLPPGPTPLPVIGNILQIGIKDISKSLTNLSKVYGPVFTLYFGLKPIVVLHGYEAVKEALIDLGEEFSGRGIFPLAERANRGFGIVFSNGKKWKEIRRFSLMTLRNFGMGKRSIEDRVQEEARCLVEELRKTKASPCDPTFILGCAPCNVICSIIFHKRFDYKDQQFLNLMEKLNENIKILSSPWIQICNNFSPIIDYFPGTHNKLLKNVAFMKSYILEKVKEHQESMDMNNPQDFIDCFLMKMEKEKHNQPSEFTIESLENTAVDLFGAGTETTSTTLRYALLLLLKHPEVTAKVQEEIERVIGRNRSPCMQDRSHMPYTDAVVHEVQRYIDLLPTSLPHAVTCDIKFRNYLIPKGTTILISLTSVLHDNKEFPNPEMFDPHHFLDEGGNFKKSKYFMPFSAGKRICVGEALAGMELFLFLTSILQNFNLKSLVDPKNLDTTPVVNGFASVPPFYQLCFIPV
Procedure: as §1

[7] = molecular target: T5, CYP3A4 (Homo sapiens, UniProt P08684); test: CYP inhibition test (CYP3A4); type: in vitro ADME; settings: pooled human hepatic microsome; terfenedine hydroxylation
T5 construct: enzyme, pooled human hepatic microsome 0.2 mg protein/mL; from tissue; host or cells: pooled human hepatic microsomes
T5 sequence (P08684 whole entry): as the sequence (P08684 whole entry) above
Procedure: as §1

[8] = molecular target: T6, CYP1A2 (Homo sapiens, UniProt P05177); test: CYP inhibition test (CYP1A2); type: in vitro ADME; settings: pooled human hepatic microsome; 7-ethoxyresorufin O-deethylation
T6 construct: enzyme, pooled human hepatic microsome 0.2 mg protein/mL; from tissue; host or cells: pooled human hepatic microsomes
T6 sequence (P05177 1-516): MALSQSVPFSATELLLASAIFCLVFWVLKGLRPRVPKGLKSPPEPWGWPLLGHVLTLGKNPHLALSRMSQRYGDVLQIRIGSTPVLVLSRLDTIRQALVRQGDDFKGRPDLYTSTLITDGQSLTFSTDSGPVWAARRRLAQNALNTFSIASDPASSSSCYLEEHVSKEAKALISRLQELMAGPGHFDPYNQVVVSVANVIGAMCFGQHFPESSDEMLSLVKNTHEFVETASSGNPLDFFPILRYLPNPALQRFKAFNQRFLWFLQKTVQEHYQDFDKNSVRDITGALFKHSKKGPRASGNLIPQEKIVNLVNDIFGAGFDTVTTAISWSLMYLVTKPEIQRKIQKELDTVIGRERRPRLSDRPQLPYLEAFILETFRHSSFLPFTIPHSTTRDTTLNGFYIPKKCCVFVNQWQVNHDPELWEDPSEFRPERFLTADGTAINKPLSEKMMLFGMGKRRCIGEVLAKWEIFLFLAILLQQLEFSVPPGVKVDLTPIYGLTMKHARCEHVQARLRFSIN
Procedure: as §1

[9] = molecular target: T7, CYP2D6 (Homo sapiens, UniProt P10635); test: CYP inhibition test (CYP2D6); type: in vitro ADME; settings: pooled human hepatic microsome; dextromethorphan O-demethylation
T7 construct: enzyme, pooled human hepatic microsome 0.2 mg protein/mL; from tissue; host or cells: pooled human hepatic microsomes
T7 sequence (P10635 whole entry): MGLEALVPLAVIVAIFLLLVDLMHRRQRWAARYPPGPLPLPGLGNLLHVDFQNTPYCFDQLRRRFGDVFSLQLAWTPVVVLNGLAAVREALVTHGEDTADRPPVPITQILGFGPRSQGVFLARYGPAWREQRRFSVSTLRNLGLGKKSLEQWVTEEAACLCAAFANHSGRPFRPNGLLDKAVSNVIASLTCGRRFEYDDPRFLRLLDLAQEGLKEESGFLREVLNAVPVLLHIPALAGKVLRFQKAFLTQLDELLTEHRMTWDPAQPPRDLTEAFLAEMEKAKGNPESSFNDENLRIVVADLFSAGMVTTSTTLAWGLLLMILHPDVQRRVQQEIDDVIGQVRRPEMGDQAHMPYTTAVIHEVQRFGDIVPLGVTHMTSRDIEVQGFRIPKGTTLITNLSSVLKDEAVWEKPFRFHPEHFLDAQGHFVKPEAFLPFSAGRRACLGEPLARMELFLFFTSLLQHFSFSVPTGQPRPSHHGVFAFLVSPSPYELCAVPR
Procedure: as §1

[10] = Metabolism stability test; type: in vitro ADME; settings: human liver microsomes 0.5 mg protein/mL, 1 mmol/L NADPH, 37° C., 30 minutes; 0 minute = 100%
Procedure: Using a commercially available pooled human hepatic microsomes, a test compound was reacted for a constant time, a remaining rate was calculated by comparing a reacted sample and an unreacted sample, thereby, a degree of metabolism in liver was assessed.
A reaction was performed (oxidative reaction) at 37° C. for 0 minute or 30 minutes in the presence of 1 mmol/L NADPH in 0.2 mL of a buffer (50 mmol/L Tris-HCl pH 7.4, 150 mmol/L potassium chloride, 10 mmol/L magnesium chloride) containing 0.5 mg protein/mL of human liver microsomes. After the reaction, 50 μL of the reaction solution was added to 100 μL of a methanol/acetonitrile=1/1 (v/v), mixed and centrifuged at 3000 rpm for 15 minutes. The test compound in the supernatant was quantified by LC/MS/MS, and a remaining amount of the test compound after the reaction was calculated, letting a compound amount at 0 minute reaction time to be 100%.

[11] = Aβ production in SH/APPwt cells, by the similar test, read-out: IC50 value
[12] = amount needed to inhibit Aβ production by 50%, SH/APPwt cells, 24 hours, Table 3, read-out: IC50

C[C@@]1(c2cc(Nc3ccncn3)ccc2F)CCSC(N)=N1 [Compound I-1]
IC50 [1, 11]: ≤ 3000 nM | inhibition at 10 min [2]: 3.2%

C[C@@]1(c2cc(Nc3ncccc3C#N)ccc2F)CCOC(N)=N1 [Compound I-3]
CYP3A4 MBI: difference between IC50 values [3]: (−) (when the difference is 3 μM or less, this was defined as (−))

COc1cccnc1Nc1ccc(F)c([C@]2(C)CCOC(N)=N2)c1 [Compound I-6]
IC50 [1, 12]: 16 nM

C[C@@]1(c2cc(Nc3ncccc3C#N)ccc2F)C=CSC(N)=N1 [Compound I-9]
solubility at 4 h [4]: > 40 µM

C[C@@]1(c2cc(Nc3ncccc3N)ccc2F)CCSC(N)=N1 [Compound I-10]
IC50 [5]: > 21000 nM | IC50 [6]: > 21000 nM | IC50 [1, 11]: ≤ 3000 nM | IC50 [7]: > 21000 nM | IC50 [8]: > 21000 nM | IC50 [9]: > 21000 nM

Cc1cccc(Nc2ccc(F)c([C@]3(C)CCSC(N)=N3)c2)n1 [Compound I-12]
IC50 [1, 11]: ≤ 3000 nM

C[C@@]1(c2cc(Nc3ncccc3CO)ccc2F)CCSC(N)=N1 [Compound I-16]
IC50 [1, 11]: ≤ 3000 nM

COc1cccnc1Nc1ccc(F)c([C@]2(C)CCSC(N)=N2)c1 [Compound I-18]
IC50 [1, 12]: 11 nM

COc1ccnc(Nc2ccc(F)c([C@]3(C)CCSC(N)=N3)c2)c1 [Compound I-19]
IC50 [1, 11]: ≤ 3000 nM

COc1ccc(Nc2ccc(F)c([C@]3(C)CCSC(N)=N3)c2)nc1 [Compound I-20]
IC50 [1, 11]: ≤ 3000 nM

COCc1ccc(Nc2ccc(F)c([C@]3(C)CCSC(N)=N3)c2)nc1 [Compound I-23]
IC50 [1, 11]: ≤ 3000 nM

CC(C)Oc1cccnc1Nc1ccc(F)c([C@]2(C)CCSC(N)=N2)c1 [Compound I-24]
IC50 [1, 11]: ≤ 3000 nM

CCCCOC(=O)c1cccnc1Nc1ccc(F)c([C@]2(C)CCOC(N)=N2)c1 [Compound I-25]
IC50 [1, 11]: ≤ 3000 nM

CC(C)OCc1ccc(Nc2ccc(F)c([C@]3(C)CCSC(N)=N3)c2)nc1 [Compound I-26]
IC50 [1, 11]: ≤ 3000 nM

C[C@@]1(c2cccc(Nc3ncccc3C#N)c2)CCSC(N)=N1 [Compound I-33]
remaining amount of the test compound after the reaction [10]: 95%

From patent US20120238557A1, “AMINOTHIAZINE OR AMINOOXAZINE DERIVATIVE HAVING AMINO LINKER” (SHIONOGI & CO., LTD., priority 2009, published 2012)
